Structures are written as SMILES.

T1 sequence (Q86WV6 whole entry R71H/G230A/H232R/R293Q): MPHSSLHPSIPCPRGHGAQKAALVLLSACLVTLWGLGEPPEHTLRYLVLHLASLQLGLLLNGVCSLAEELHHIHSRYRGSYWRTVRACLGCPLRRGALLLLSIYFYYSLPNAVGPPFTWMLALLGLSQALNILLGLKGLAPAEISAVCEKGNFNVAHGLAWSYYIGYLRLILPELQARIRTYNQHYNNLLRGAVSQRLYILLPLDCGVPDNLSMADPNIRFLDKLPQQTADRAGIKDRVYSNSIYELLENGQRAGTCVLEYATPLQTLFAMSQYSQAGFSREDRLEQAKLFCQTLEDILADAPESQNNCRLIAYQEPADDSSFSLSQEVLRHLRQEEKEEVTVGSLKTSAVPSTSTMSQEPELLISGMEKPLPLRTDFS

One data set has as its target T1, Sting-HAQ (Homo sapiens, UniProt Q86WV6, G230A/H232R/R293Q/R71H).
T1 construct: host or cells: HEK293-HAQ Luc reporter cell line
Nature of the data set: HEK293-HAQ Luc reporter gene assay (Steady-Glo luciferase). The data set is classed as cell-based. Conditions: 24 h incubation; read-out: HEK293-HAQ Luc Report Assay (24 h) EC50. As to the method:
Test Principle: The HEK293-HAQ Luc reporter cell line utilizes the chemiluminescent reaction property of luciferase binding to its substrate beetle luciferin. The regulatory elements of the Sting-HAQ gene transcription are cloned upstream/downstream of the firefly luciferase gene to construct a luciferase recombinant plasmid. The recombinant plasmid is then transfected into HEK293 cells. After treatment with compounds, the cells are lysed, and the luciferase activity is measured using the Steady-Glo® detection system (Cat #E2550) manufactured by Promega Corporation. The effect of compounds on the Sting-HAQ regulatory elements is determined based on the level of luciferase activity. The Steady Glo® Luciferase Assay System enables high-throughput evaluation of the degree of activation of reporter cell lines by compounds through the activity of luciferase in mammalian cells, and provides long-term stable luminescence when used with reporter cell lines. The detection system can sustain a signal half-life of more than 5 hours in the test cell culture medium, enabling uniform measurement without sample pretreatment.
Test Method: Complete medium (DMEM+10% FBS+1% P/S) was prepared. The Hek293-HAQ Luc reporter cell line was resuscitated and passaged twice. Cells in logarithmic growth phase were collected by centrifugation, counted, and resuspended to an appropriate concentration. The cell suspension was seeded into a 96-well plate at a density of 20000 cells/well, with 100 µL of the cell suspension added per well. Test compounds were prepared into stock solutions with DMSO, and serially diluted 3-fold with DMSO starting from the highest concentration of 100 mM to obtain 9 concentration gradients. The test compounds were diluted 47.62-fold with culture medium, and 5 μL of each dilution was added to the 96-well plate containing 100 μL of cells. To Min control wells were added 5 μL of DMSO-cell culture medium mixture (with a final DMSO concentration of 0.1%), while Max control wells received 5 μL of a positive reference compound. The plate was incubated at 37° C. in an incubator with 5% carbon dioxide and relative humidity above 90% for 24 h. Subsequently, 75 μL/well of […] was added to terminate the reaction. After shaking at 305 rpm for 10 min, the plates were detected on Envision. The […] value RLU of each well was read, and the activation rate was calculated according to the formula: Activation %=(Sample−Ave_L)/(Ave_H−Ave_L)×100, where Ave_L: RLU Min (0.1% DMSO), Ave_H: RLU Max (positive reference compound). The activation rate, Activation % (Y), corresponding to each concentration (X), was entered in EXCEL. The half-maximal effective concentration EC50 value of each compound was calculated according to the built-in four-parameter fitting formula Y=Bottom+(Top−Bottom)/(1+10^((LogEC50−X)*HillSlope)) using the XLfit plug-in.
Take `COc1cc2sc(C(=O)CCC(=O)O)cc2c2cc(F)oc12`: the EC50 turned out to be 0.792 µM. Consider `COc1cc2sc(C(=O)CC(C)C(=O)O)cc2c2nc(N)oc12` (centres unmarked), for which the concentration giving a half-maximal response (EC50) was above 100 µM. Consider `COc1cc2sc(C(=O)CC(C)C(=O)O)c(C)c2c2nc(N)oc12` (centres unmarked), for which the 50% effective concentration (EC50) was above 100 µM. The same measure, in the same setting: for `COc1cc2sc(C(=O)CC(C)C(=O)O)nc2c2cc(C)oc12` (centres unmarked) the value was 2.34 µM; for `COc1cc2sc(C(=O)C[C@H](C)C(=O)O)nc2c2nc(C)oc12`, 4.18 µM; for `COc1cc2sc(C(=O)CCC(=O)O)cc2c2ncoc12` [drawing 622], 1.23 µM. On the same count and under the same terms, for `CC[C@H](CC(=O)c1cc2c(cc(OC)c3oc(C)cc32)s1)C(=O)O` the value was 4.46 µM.

As for `COc1cc2sc(C(=O)CCC(=O)O)cc2c2nc(N)oc12`, the EC50 was above 100 µM. Same read-out and setting: for `COc1cc2sc(C(=O)CCC(=O)O)cc2c2nc[nH]c12` the value was above 100 µM; for `C[Si](C)(C)CCOCn1cc2c(ccc3sc(C(=O)CCC(=O)O)cc32)n1`, above 100 µM; for `COc1cc2sc(C(=O)CCC(=O)O)nc2c2nc(C)oc12`, 18 µM. Consider `COc1cc2sc(C(=O)CCC(=O)O)cc2c2ncn(C)c12`, for which the 50% effective concentration (EC50) is above 100 µM. On the same count and under the same terms, under `COc1cc2sc(C(=O)CC(C)C(=O)O)cc2c2cc(F)oc12` (centres unmarked) stands 0.57 µM. On the same count and under the same terms, under `COc1cc2sc(C(=O)CCC(=O)O)c(C)c2c2ccoc12` stands 29.8 µM.

Take `CC[C@H](CC(=O)c1cc2c(cc(OC)c3oc(F)cc32)s1)C(=O)O`: the EC50 came to 4.1 µM. On the same count and under the same terms, for `Cn1cc2c(ccc3sc(C(=O)CCC(=O)O)cc32)n1` the value was 41.8 µM. Still for that read-out and setting: under `COc1cc2sc(C(=O)CCC(=O)O)cc2c2cc(C)oc12` stands 1.04 µM. As for `COc1cc2sc(C(=O)CCC(=O)O)c(C)c2c2ncoc12`, the EC50 was determined as 58 µM. On the same count and under the same terms, under `CCC(CC(=O)c1cc2c(cc(OC)c3oc(F)cc32)s1)C(=O)O` (centres unmarked) stands 0.823 µM; under `COc1cc2sc(C(=O)C(C)CC(=O)O)nc2c2nc(C)oc12` (centres unmarked), 59.9 µM. `COc1cc2sc(C(=O)CCC(=O)O)cc2c2nc(C3CC3)oc12`: the concentration for a half-maximal effect (EC50) turned out to be 90.7 µM.

Regarding `CCC(CC(=O)c1cc2c(cc(OC)c3oc(C)cc32)s1)C(=O)O` (centres unmarked), the EC50 is 0.565 µM. Same read-out and setting: for `COc1cc2sc(C(=O)CCC(=O)O)cc2c2c1OCC2` the value was 7.87 µM; for `COc1cc2sc(C(=O)CCC(=O)O)cc2c2c1OCCO2`, above 100 µM; for `C[C@@H](CC(=O)c1cc2c(cc(O)c3oc(F)cc32)s1)C(=O)O`, 29.3 µM. The same measure, in the same setting: under `COc1cc2sc(C(=O)CCC(=O)O)c(C)c2c2cc(C)oc12` stands 19 µM.

Regarding `COc1cc2sc(C(=O)CCC(=O)O)cc2c2c1ncn2C`, the 50% effective concentration (EC50) was above 100 µM. On the same count and under the same terms, for `COc1cc2sc(C(=O)C[C@@H](C)C(=O)O)cc2c2cc(F)oc12` the value was 6.87 µM; for `CC[C@@H](CC(=O)c1cc2c(cc(OC)c3ocnc32)s1)C(=O)O` [drawing 659], 0.302 µM; for `COc1cc2sc(C(=O)CCC(=O)O)cc2c2ocnc12`, 2.5 µM. On the same count and under the same terms, under `COc1cc2sc(C(=O)CCC(=O)O)cc2c2c1CCC2` stands above 100 µM; under `CC[C@@H](CC(=O)c1cc2c(cc(OC)c3oc(F)cc32)s1)C(=O)O`, 0.352 µM; under `COc1cc2sc(C(=O)CCC(=O)O)cc2c2cnn(C)c12`, above 100 µM. Still for that read-out and setting: under `COc1cc2sc(C(=O)CC(C)C(=O)O)cc2c2ccoc12` (centres unmarked) stands 2.2 µM.

With `COc1cc2sc(C(=O)C[C@H](C)C(=O)O)cc2c2cc(F)oc12` [drawing 673], the EC50 came to 0.465 µM. On the same count and under the same terms, under `COc1cc2sc(C(=O)CC(C)C(=O)O)c(C)c2c2ncoc12` (centres unmarked) stands 92 µM; under `COc1cc2sc(C(=O)C[C@@H](C)C(=O)O)nc2c2nc(C)oc12`, 67.7 µM.

On to `COc1cc2sc(C(=O)CC(C)C(=O)O)cc2c2ncoc12` (centres unmarked) [drawing 631], for which the concentration giving a half-maximal response (EC50) is 1.12 µM. On the same count and under the same terms, for `COc1cc2sc(C(=O)CCC(=O)O)cc2c2nc(C)oc12` [drawing 626] the value was 1.58 µM; for `[2H]C([2H])([2H])Oc1cc2sc(C(=O)C[C@H](C)C(=O)O)cc2c2cc(F)oc12`, 0.263 µM; for `COc1cc2sc(C(=O)CC(C)C(=O)O)nc2c2nc(C)oc12` (centres unmarked), 3.32 µM. Same read-out and setting: for `COc1cc2sc(C(=O)CCC(=O)O)cc2c2nc(C(C)C)oc12` the value was above 100 µM. Take `Cn1ncc2c3cc(C(=O)CCC(=O)O)sc3ccc21`: the half-maximal effective concentration (EC50) was above 100 µM. On the same count and under the same terms, under `[2H]c1c(C)oc2c(OC)cc3sc(C(=O)C[C@H](C)C(=O)O)cc3c12` stands 0.313 µM; under `COc1cc2sc(C(=O)C[C@H](C)C(=O)O)cc2c2c(F)c(C)oc12` [drawing 678], 0.19 µM. Same read-out and setting: under `O=C(O)CCC(=O)c1cc2c(ccc3[nH]ncc32)s1` stands above 100 µM; under `COc1cc2sc(C(=O)C[C@H](C)C(=O)O)cc2c2cc(C)oc12` [drawing 660], 0.341 µM. The same measure, in the same setting: for `COc1cc2sc(C(=O)C[C@@H](C)C(=O)O)cc2c2c(F)c(C)oc12` the value was 1.51 µM. `COc1cc2sc(C(=O)CCC(=O)O)cc2c2cnoc12`: the EC50 is above 100 µM. Still for that read-out and setting: for `COc1cc2sc(C(=O)CCC(=O)O)cc2c2ccoc12` the value was 2.52 µM; for `CCc1nc2c(o1)c(OC)cc1sc(C(=O)CCC(=O)O)cc12`, 36 µM; for `COc1cc2sc(C(=O)CCC(=O)O)cc2c2ccsc12`, 10.7 µM. The same measure, in the same setting: under `CCC(CC(=O)c1cc2c(cc(OC)c3occc32)s1)C(=O)O` (centres unmarked) stands 0.979 µM; under `COc1cc2sc(C(=O)C[C@H](C)C(=O)O)cc2c2ncoc12` [drawing 651], 0.16 µM. Same read-out and setting: for `C[Si](C)(C)CCOCn1ncc2c3cc(C(=O)CCC(=O)O)sc3ccc21` the value was above 100 µM; for `CCC(CC(=O)c1cc2c(cc(OC)c3ocnc32)s1)C(=O)O` (centres unmarked), 0.308 µM. Regarding `CC[C@@H](CC(=O)c1cc2c(cc(OC)c3oc(C)cc32)s1)C(=O)O`, the EC50 amounted to 0.24 µM. Same read-out and setting: under `COc1cc2sc(C(=O)CCC(=O)O)cc2c2cn(C)nc12` stands 49 µM. Still for that read-out and setting: under `CCC(CC(=O)c1cc2c(cc(OC)c3oc(C)nc32)s1)C(=O)O` (centres unmarked) stands 0.326 µM; under `COc1cc2sc(C(=O)CCC(=O)O)cc2c2ccn(C)c12`, above 100 µM; under `COc1cc2sc(C(=O)CC(C)C(=O)O)cc2c2cc(C)oc12` (centres unmarked), 1.2 µM. Still for that read-out and setting: under `COc1cc2sc(C(=O)C[C@@H](C)C(=O)O)cc2c2ncoc12` stands 5.81 µM; under `COc1cc2sc(C(=O)CCC(=O)O)c(C)c2c2nc(N)oc12`, above 100 µM.

Tested on in another data set: not listed separately
Nature of the data set: Pharmacokinetic (PK) study in ICR mice, IV and PO. Conditions: ICR, mouse, plasma, iv, 2 mg/kg.
Experimental: The doses for IV and PO were 2 mg/kg and 5 mg/kg, respectively. Blood was collected at different time points after IV and PO administration and placed in heparinized tubes. Plasma was separated and frozen in a −20° C. refrigerator. Plasma was processed and then analyzed by LCMS/MS. Pharmacokinetic parameters of drug administration were calculated using a non-compartmental model in WinNonlin 8.2 software.
The compound `COc1cc2sc(C(=O)C[C@H](C)C(=O)O)cc2c2c(F)c(C)oc12` [Compound 59] had an AUC(0-t) of 5500 ng·h/mL, a Vd of 0.191 L/kg, a clearance of 6.03 mL/min/kg and a half-life of 2.35 h. `COc1cc2sc(C(=O)C[C@H](C)C(=O)O)cc2c2cc(C)oc12` [Example 32] gave an AUC(0-t) of 3700 ng·h/mL, a Vd of 0.252 L/kg, a clearance of 8.98 mL/min/kg and a half-life of 0.821 h.

Compound `COc1cc2sc(C(=O)CCC(=O)O)cc2c2nc(C)oc12` [Example 6, 4-(4-methoxy-2-methylthieno[2′,3′:5,6]benzo[1,2-d]oxazol-7-yl)-4-oxobutanoic acid] gave an AUC(0-t) of 4240 ng·h/mL, a Vd of 0.264 L/kg, a clearance of 7.85 mL/min/kg and a half-life of 1.11 h.

The same data set, now with this note: ICR, mouse, plasma, po, 5 mg/kg.
`COc1cc2sc(C(=O)C[C@H](C)C(=O)O)cc2c2c(F)c(C)oc12` [Compound 59] had an AUC(0-t) of 5180 ng·h/mL, a peak concentration (Cmax) of 7700 ng/mL, a bioavailability of 38% and a half-life of 1.1 h.

The compound `COc1cc2sc(C(=O)C[C@H](C)C(=O)O)cc2c2cc(C)oc12` [Example 32] showed an AUC(0-t) of 3450 ng·h/mL, a Cmax of 5360 ng/mL, a bioavailability of 37.4% and a half-life of 0.925 h. On to `COc1cc2sc(C(=O)CCC(=O)O)cc2c2nc(C)oc12` [Example 6, 4-(4-methoxy-2-methylthieno[2′,3′:5,6]benzo[1,2-d]oxazol-7-yl)-4-oxobutanoic acid], for which the AUC(0-t) turned out to be 3680 ng·h/mL, the Cmax is 4280 ng/mL, the bioavailability came to 42.5% and the half-life is 2.64 h.

Still in this data set, the particulars now being: mouse PK, injection 2 mg/kg and oral 5 mg/kg.
For the compound `COc1cc2sc(C(=O)C[C@H](C)C(=O)O)cc2c2c(F)c(C)oc12` [Compound 59], the “clearance in vivo compared to MAS-2” value is “lower clearance” and the “exposure in vivo compared to MAS-2” value is listed as “higher exposure”.

Source of the values: patent US20260242392A1, “ARYL TRICYCLIC STING AGONISTS AND USE THEREOF” (SHENZHEN GENUINE BIOTECHNOLOGY CO., LTD., priority 2023, published 2026).
